The values that follow come from US20090156582A1, “Pyrazole Compound” (priority 2005, published 2009).

The test system of assay [1] is nerve cell prepared from cerebral cortex of fetus of SD rat. In words: Measurement of nerve cell death suppressive activity. It counts as cell-based. The note with it: rat cerebral cortex nerve cells, LY294002 50 μM final concentration, 24 hr, viable cell number by Cell Titer Glo; read-out: IC50 value (concentration of the test compound needed for 50% inhibition of nerve cell death). The protocol:
The cerebral cortex was taken from fetus of TP-14 pregnant SD rat (CLEA Japan, Inc.), and nerve cell was prepared using nerve cell culture system (SUMITOMO BAKELITE). The cerebral cortex was placed in enzymatic solution of cell dispersion solution kit (SUMITOMO BAKELITE), and incubated at 37° C. for 30 min. The cells were suspended by pipetting, and collected by centrifugation at 1000 rpm for 5 min. The supernatant was removed, and cell dispersion solution (SUMITOMO BAKELITE) was added. The cells were suspended by pipetting. The cell suspension was placed on removing solution (SUMITOMO BAKELITE), and the cells were collected by centrifugation at 1000 rpm for 5 min. The supernatant was removed, and the cells were suspended in nerve cell culture medium (SUMITOMO BAKELITE). 100 μl of the suspension was seeded on a poly D lysine•laminin 96 well plate (Becton, Dickinson and Company) at 1×10^5 cells/well. Then, the plate was cultured in a carbon dioxide gas incubator at 37° C. for 4 days. A test compound (50 μl) was added on the 96 well plate, and 50 μL/well of LY294002 was added at 50 μM of the final concentration. Then, the plate was cultured in a carbon dioxide gas incubator for 24 hr. The medium (100 μl) was sampled, and 100 μl of Cell Titer Glo solution (Promega) was added to count the viable cell number. […]

In assay [2] the target is T1, recombinant GSK3β enzyme (human GSK3β) (Homo sapiens, UniProt P49841).
T1 construct: FLAG (N); made in house; host or cells: Sf-21 insect cells, recombinant baculovirus (pFASTBAC1 / BAC-TO-BAC)
In words: Measurement of GSK3β inhibitory activity. It counts as biochemical. The note with it: glycogen synthase peptide substrate, Kinase Glo luminescence, read-out: IC50 (concentration of test compound needed for 50% inhibition of luminescent intensity), GSK3β inhibitory activity. In a few lines:
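FLAG-purified human GSK3β expressed in baculovirus-infected Sf-21 cells; reaction with 2.5 μM ATP (stock solution) at room temperature, 30 min. Residual ATP measured by Kinase-Glo luminescence; IC50 as concentration inhibiting 50% of luminescent intensity.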

In another assay the test system is H4IIE-C3 cells. In words: Measurement of sugar release suppressive action using cultured hepatocyte. It counts as cell-based. The note with it: Rattus norvegicus, H4IIEC3, 3 h, test compound 10 μM, Dexamethasone 500 nM and 8CPT-cAMP 0.1 mM, GSK3β inhibitor free group is 100%, read-out: sugar release suppressive activity (released glucose content, relative value). As for the experimental part:
H4IIE-C3 cells (from rat liver) were seeded on 24 well or 96 well collagen coated plate (manufactured by Falcon), and cultured in Dulbecco's Modified Eagle Medium (DMEM: manufactured by GIBCO) containing 10% FBS, 25 mM Glucose until the cells became sub-confluent. Then, the cells were starvation treated with DMEM containing 0% FBS and 5.6 mM glucose. The medium was exchanged to DMEM containing test compound adjusted to 10 μM and sugar production stimulant (Dexamethasone (500 nM), 8CPT-cAMP (0.1 mM)), and the cells were pretreated for 5 hr. After washing with PBS, the cells were cultured in Phenol Red-free, Glucose-free DMEM containing the test compound and sugar production stimulant for 3 hr, and the glucose content released in the medium was measured. A glucose measurement kit (A-22189) manufactured by Molecular Probes was used for the glucose measurement. The sugar release suppressive activity is shown in a relative value when the released glucose content of a GSK3β inhibitor free group is 100%.

T1 sequence (P49841 whole entry): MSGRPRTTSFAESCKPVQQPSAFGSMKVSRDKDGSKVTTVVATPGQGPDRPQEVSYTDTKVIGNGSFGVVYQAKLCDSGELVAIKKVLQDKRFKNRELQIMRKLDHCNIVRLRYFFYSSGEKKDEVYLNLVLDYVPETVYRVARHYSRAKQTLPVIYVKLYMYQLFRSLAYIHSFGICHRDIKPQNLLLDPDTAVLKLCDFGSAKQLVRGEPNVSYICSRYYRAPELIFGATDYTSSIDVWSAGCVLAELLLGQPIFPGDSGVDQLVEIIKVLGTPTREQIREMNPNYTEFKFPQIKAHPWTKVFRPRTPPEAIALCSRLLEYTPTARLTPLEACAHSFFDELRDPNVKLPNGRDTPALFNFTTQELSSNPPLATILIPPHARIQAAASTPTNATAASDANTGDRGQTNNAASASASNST

Consider `O=C(Nc1c[nH]nc1C(=O)NC1CCCC1)c1cnccn1` [Example 79, N-{3-[(cyclopentylamino)carbonyl]-1H-pyrazol-4-yl}pyrazine-2-carboxamide], for which the IC50 in assay [1] was 70 nM.

Take `O=C(Nc1c[nH]nc1C(=O)Nc1ccccc1)c1cnccn1` [Example 98, N-{3-[(phenylamino)carbonyl]-1H-pyrazol-4-yl}pyrazine-2-carboxamide]: the IC50 in assay [1] turned out to be 440 nM.

Consider `Cc1cccc(C(=O)Nc2c[nH]nc2C(=O)NCCC#N)n1` [Example 387, N-(3-(((2-cyanoethyl)amino)carbonyl)-1H-pyrazol-4-yl)-6-methylpyridine-2-carboxamide], for which the IC50 in assay [2] is less than 100 nM. Moreover, the activity at 10 µM in the assay with H4IIE-C3 cells came out at 69%.

`Cc1cccc(C(=O)Nc2c[nH]nc2C(=O)NCCC#N)c1` [Example 413, N-(2-cyanoethyl)-4-(3-methylbenzoylamino)-1H-pyrazole-3-carboxamide]: the IC50 in assay [2] is less than 100 nM. The activity at 10 µM in the assay on H4IIE-C3 cells came to 64%.
